Values of other authors in patent US10638758B2, “Heterocycle-containing amino acid compound and use thereof” (AICHI STEEL CORPORATION, priority 2015, dated 2020).

Test system: rice
Details: alkaline conditions; Non-Patent Document 2

**Q.** Which “effect on the growth of graminaceous plants” value does the source give for `O=C(O)[C@@H](NCC[C@H](O)C(=O)O)[C@@H](O)CN1CC[C@H]1C(=O)O` [mugineic acid] here?
**A.** dramatic effect
